The target in the assay is HSV-1 ribonucleotide reductase (Human herpesvirus 1, UniProt P08543). As to the kind of experiment: biochemical. From the text: Inhibition of Herpes Simplex Virus (HSV, type 1) Ribonucleotide Reductase
• a) Preparation of Enzyme HSV-1 ribonucleotide reductase (partially purified) was obtained from quiescent BHK-21/C13 cells infected with strain F HSV-1 virus at 10 plaque forming units/cell as described by E.A. Cohen et al., J. Gen. […] The number of units of the enzyme preparation used in each assay was constant, based on the specific activity of the enzyme preparation.

Starred links: 1 amine or outer side, 2 acyl side, 3 side chain; linkers in the order of their positions; H or OH if unused. Non-standard residues stand in square brackets, D forms with d. Residues, ends and D or L forms follow the SMILES beside them. *: point of attachment. Ala(1H-tetrazol-5-yl) = N[C@@H](Cc1nnn[nH]1)C(=O)O; X1 = CC(C)[C@@H](C(=O)[*:2])N(CCc1ccccc1)[*:1]; Benzoyl(2-Ph) = O=C(c1ccccc1-c1ccccc1)*; Desaminotyrosyl = O=C(CCc1ccc(O)cc1)*; Butanoyl(4-Ph) = O=C(CCCc1ccccc1)*; Hydrocinnamoyl = O=C(CCc1ccccc1)*; Pentanoyl(4-Me) = CC(C)CCC(=O)*; X3 = CC(C)C[C@H](N*)c1nnn[nH]1; X2 = O=C(c1ccccc1Cc1ccccc1)*; NMeV = CN[C@H](C(=O)O)C(C)C

HSV-1 ribonucleotide reductase, sequence (P08543 whole entry): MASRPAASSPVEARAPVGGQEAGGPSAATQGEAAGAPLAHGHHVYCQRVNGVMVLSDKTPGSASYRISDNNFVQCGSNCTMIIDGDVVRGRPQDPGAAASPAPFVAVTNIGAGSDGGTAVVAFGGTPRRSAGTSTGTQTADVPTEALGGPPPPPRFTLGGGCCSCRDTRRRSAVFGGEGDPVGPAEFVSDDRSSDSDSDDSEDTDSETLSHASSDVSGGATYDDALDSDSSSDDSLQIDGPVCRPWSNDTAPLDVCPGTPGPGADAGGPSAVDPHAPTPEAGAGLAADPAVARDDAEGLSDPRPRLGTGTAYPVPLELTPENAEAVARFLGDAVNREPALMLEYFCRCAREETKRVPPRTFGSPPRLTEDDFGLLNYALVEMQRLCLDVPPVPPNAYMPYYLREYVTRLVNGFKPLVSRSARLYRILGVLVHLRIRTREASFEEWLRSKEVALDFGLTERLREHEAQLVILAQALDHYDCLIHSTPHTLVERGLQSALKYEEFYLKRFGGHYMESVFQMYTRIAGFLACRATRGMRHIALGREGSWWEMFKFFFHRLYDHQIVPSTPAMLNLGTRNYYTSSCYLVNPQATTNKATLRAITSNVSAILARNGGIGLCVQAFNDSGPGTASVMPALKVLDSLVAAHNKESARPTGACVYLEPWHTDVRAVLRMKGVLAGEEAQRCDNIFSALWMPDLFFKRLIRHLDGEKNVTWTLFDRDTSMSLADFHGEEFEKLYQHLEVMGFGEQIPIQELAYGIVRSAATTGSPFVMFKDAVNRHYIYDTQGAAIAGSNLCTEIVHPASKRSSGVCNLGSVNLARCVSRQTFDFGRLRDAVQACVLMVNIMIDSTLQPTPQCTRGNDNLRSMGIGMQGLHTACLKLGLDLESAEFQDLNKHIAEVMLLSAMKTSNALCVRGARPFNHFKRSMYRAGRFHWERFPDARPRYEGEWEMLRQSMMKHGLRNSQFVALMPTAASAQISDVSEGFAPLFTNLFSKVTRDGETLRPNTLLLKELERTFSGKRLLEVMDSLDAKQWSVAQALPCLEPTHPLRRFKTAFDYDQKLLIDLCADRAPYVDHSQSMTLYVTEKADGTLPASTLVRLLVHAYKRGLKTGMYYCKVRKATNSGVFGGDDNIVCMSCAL

`CC[C@H](C)[C@H](NC(=O)[C@H](C(C)C)N(C)C(=O)c1ccccc1Cc1ccccc1)C(=O)N[C@@H](CC(N)=O)C(=O)N[C@@H](CC(=O)O)C(=O)N[C@@H](CC(C)C)C(=O)O` (X2-[NMeV]INDL-OH) displayed a concentration for half-maximal inhibition (IC50) of 5.5 µM.
Then `CC[C@H](C)[C@H](NC(=O)[C@H](C(C)C)N(CCc1ccccc1)C(C)=O)C(=O)N[C@@H](CC(N)=O)C(=O)N[C@@H](CC(=O)O)C(=O)N[C@@H](CC(C)C)C(=O)O` [CH3CO / PhCH2CH2 / CONH2 / COOH] (Ac-[X1]INDL-OH), with 17 µM; and `CC[C@H](C)[C@H](NC(=O)[C@H](C(C)C)N(C)C(=O)CCCc1ccccc1)C(=O)N[C@@H](CC(N)=O)C(=O)N[C@@H](CC(=O)O)C(=O)N[C@@H](CC(C)C)C(=O)O` [PhCH2CH2CH2CO / CH3 / CONH2 / COOH] ({Butanoyl(4-Ph)}-[NMeV]INDL-OH), with 6.2 µM; and `CC[C@H](C)[C@H](NC(=O)[C@H](C(C)C)N(C)C(=O)CCc1ccccc1)C(=O)N[C@@H](Cc1nnn[nH]1)C(=O)N[C@@H](CC(=O)O)C(=O)N[C@@H](CC(C)C)C(=O)O` [PhCH2CH2CO / CH3 / 5-1H-t / COOH, PhCH2CH2CO-N-Me-Val-Ile-NHCH[CH2-5-1H-tetrazole]CO-Asp-Leu-OH] (Hydrocinnamoyl-[NMeV]I[Ala(1H-tetrazol-5-yl)]DL-OH), with 2 µM.
Then `CC[C@H](C)[C@H](NC(=O)[C@H](C(C)C)N(C)C(=O)CCC(C)C)C(=O)N[C@@H](CC(N)=O)C(=O)N[C@@H](CC(=O)O)C(=O)N[C@@H](CC(C)C)C(=O)O` [(CH3)2CHCH2CH2CO / CH3 / CONH2 / COOH] ({Pentanoyl(4-Me)}-[NMeV]INDL-OH), with 7.6 µM; and `CC[C@H](C)[C@H](NC(=O)[C@H](C(C)C)N(C)C(=O)c1ccccc1-c1ccccc1)C(=O)N[C@@H](CC(N)=O)C(=O)N[C@@H](CC(=O)O)C(=O)N[C@@H](CC(C)C)C(=O)O` ({Benzoyl(2-Ph)}-[NMeV]INDL-OH), with 2.5 µM.
`CC[C@H](C)[C@H](NC(=O)[C@H](C(C)C)N(C)C(=O)CCc1ccccc1)C(=O)N[C@@H](CC(N)=O)C(=O)N[C@@H](CC(=O)O)C(=O)N[C@@H](CC(C)C)c1nnn[nH]1` [PhCH2CH2CO / CH3 / CONH2 / 5-1H-t, PhCH,CH,CO-N-Me-Val-Ile-Asn-Asp-NHCH[CH2-CH(CH3)2]-5-1H-tetrazole] (Hydrocinnamoyl-[NMeV]IND-X3) yielded an IC50 of 3.8 µM.
In the case of `CC[C@H](C)[C@H](NC(=O)[C@H](C(C)C)N(C)C(=O)CCc1ccc(O)cc1)C(=O)N[C@@H](CC(N)=O)C(=O)N[C@@H](CC(=O)O)C(=O)N[C@@H](CC(C)C)C(=O)O` [DAT / CH3 / CONH2 / COOH, DAT-N-Me-Val-Ile-Asn-Asp-Leu-OH] (Desaminotyrosyl-[NMeV]INDL-OH), 6 µM corresponded to half-maximal inhibition (IC50).

The IC50 is the midpoint of a concentration-inhibition curve. High values mean a need for much substance, low ones inhibition by little substance.

These data come from EP0408973B1, “Antiherpes pentapeptides” (BIO-MEGA/BOEHRINGER INGELHEIM RESEARCH INC., priority 1989, dated 1991).
